Laboratory results taken from article PMC6959289, “Development of a Biosensor for Detection of Benzoic Acid Derivatives in Saccharomyces cerevisiae” (Frontiers in Bioengineering and Biotechnology, 2020).

Target: T1, sBAD (formerly sHbaR); LexA-HbaR ligand-binding domain-B112 synthetic transcription factor (Rhodopseudomonas palustris, UniProt Q9RFR5)
T1 construct: expressed in S. cerevisiae CEN.PK 2C-1
T1 sequence (Q9RFR5 1-241 limits assumed): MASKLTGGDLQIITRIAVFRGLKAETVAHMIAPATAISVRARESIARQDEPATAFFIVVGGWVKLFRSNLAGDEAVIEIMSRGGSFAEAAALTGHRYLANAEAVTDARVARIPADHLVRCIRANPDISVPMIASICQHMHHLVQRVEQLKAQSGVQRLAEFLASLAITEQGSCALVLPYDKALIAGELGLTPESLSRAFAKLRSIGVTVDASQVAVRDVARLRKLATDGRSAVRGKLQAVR
Assay: mCitrine reporter activation in yeast, flow cytometry, dose-response
Type: cell-based, Saccharomyces cerevisiae
Excerpt: mCitrine reporter activation in yeast, flow cytometry, dose-response on sBAD (formerly sHbaR); LexA-HbaR ligand-binding domain-B112 synthetic transcription factor

EC50 [µM]	Structure (SMILES)
749 ± 399	O=C(O)c1ccc(O)cc1 [HBA, 4-hydroxybenzoic acid]
598 ± 283	CC(=O)Oc1ccccc1C(=O)O [aspirin]
47 ± 20	O=C(O)c1ccccc1 [benzoic acid]
169 ± 81	Nc1ccc(C(=O)O)cc1 [pABA, 4-aminobenzoic acid]
